In patent US20230414617A1, “PHARMACEUTICAL COMPOSITION COMPRISING ACID-BASE NEUTRALIZATION COMBINATION AND APPLICATION THEREOF” (CHENGDU KUACHANGAOPU MEDICAL TECHNOLOGY CO., LTD., priority 2020, published 2023):
Where a name gives a salt, the structure may show the parent alone.

Tests used:
breast cancer 4T1 cells [1] = experiment: Tumor inhibition, breast cancer 4T1 transplantation tumor (Example 7); format: in vivo, BALB/c mouse; settings: intratumoral; for Tumor weight (x ± s): 150 ul/mouse, once every 3 days x3, 5th day after end; for Tumor inhibition rate: vs negative control
Experimental: (§1) In the following examples of the present invention, the co-administration pharmaceutical efficacies of drug A and drug B combination administration was determined by ratio q of actual pharmaceutical efficacy/expected pharmaceutical efficacy according to Zhengjun JIN method, as follows.
In an experiment, the test animal was a BALB/c mouse, the modeling cells were breast cancer 4T1 cells, and the transplantation tumor was modeled at 1×10^6 cells/mouse under the skin of the animal's right axilla. […] The negative controls and study drugs were administered intraperitoneally (groups 02, 11 and 15) and intratumorally (other study groups), respectively. All groups were dosed once every 3 days, for a total of 3 times, […], with an injection volume of 150 ul/mouse. On the 5th day after the administration was ended, the animals were euthanized, and the tumor weight was measured after anatomy to the animals. The tumor inhibition rate was calculated from the negative control group.

breast cancer 4T1 cells [2] = experiment: Tumor inhibition, breast cancer 4T1 transplantation tumor (Example 6); format: in vivo, BALB/c mouse; settings: intratumoral; for Tumor weight (x ± s): 150 μl/mouse, once every 3 days x3, 5th day after end; for Tumor inhibition rate: vs negative control
Experimental: as §1
(§2) In an experiment, the test animal was a BALB/c mouse, the modeling cells were breast cancer 4T1 cells, and the transplantation tumor was modeled at 1×10^5 cells/mouse under the skin of the animal's right axilla. Successfully modeled experimental animals (with an average tumor volume of 324 mm^3) were divided into 1 negative control group (group 0) and 9 drug study groups (groups 1-9). […] Each group was administered by intratumoral injection once every 3 days for a total of 3 times, each time at an injection dose of 150 μl/mouse. On the 5th day after the administration was ended, the animals were euthanized, and the tumor weight was measured after anatomy to the animals. The tumor inhibition rate was calculated from the negative control group.

[3] = pH of the study drug aqueous solution; format: physicochemical; settings: aqueous solution
[4] = tested on: mouse liver cancer Hepa1-6 cells; experiment: Series B: tumor inhibition, Hepa1-6 transplantation tumor in 8-month-old mice (Example 10); format: in vivo; settings: one intratumoral injection 100 μl/mouse; for r'3d, tumor inhibition rate (tumor volume): day 3; for r'14d, tumor inhibition rate (tumor volume): day 14
Experimental: The animals in series B were modeled in 8-month-old mice as a middle-aged and elderly patient model, which was not consistent with the commonly used young patient model in terms of tumor formation, tumor histomorphology, and body immunocompetence. […] The model animals were randomly divided into 13 groups. Each group was administered once by intratumoral injection according to the drug grouping in Table 11 with an injection volume of 100 μl/mouse.
The actual/expected ratio […] for short-term drug efficacy and the actual/expected ratio q14d for medium-term drug efficacy were calculated based on the drug efficacies (r′3d, […]) at different times (day 3, day 14), respectively.

breast cancer 4T1 cells [5] = experiment: Tumor inhibition, breast cancer 4T1 transplantation tumor (Example 8); format: in vivo, BALB/c mouse; settings: intratumoral; for Tumor weight (x ± s): 150 μl/mouse, once every 3 days x3, 5th day after end; for Tumor inhibition rate: vs negative control
Experimental: as §1
as §2, with “336” for “324”, “16” for “9”, “1-16).” for “1-9).”

breast cancer 4T1 cells [6] = experiment: Tumor inhibition, breast cancer 4T1 transplantation tumor (Example 3); format: in vivo, BALB/c mouse; settings: intratumoral; for Tumor weight (x ± s): 150 μl/mouse, once every 3 days x3, 5th day after end; for Tumor inhibition rate: vs negative control
Experimental: as §1
as §2, with “1×10^6” for “1×10^5”, “axilla.” for “axilla. Successfully modeled experimental animals (with an average tumor volume of 324 mm^3) were divided into 1 negative control group (group 0) and 9 drug study groups (groups 1-9).”, “determined” for “measured”

breast cancer 4T1 cells [7] = experiment: Tumor inhibition, breast cancer 4T1 transplantation tumor (Example 4); format: in vivo, BALB/c mice; settings: intratumoral; for Tumor weight (x ± s): 150 μl/mouse, once every 3 days x3, 5th day after end; for Tumor inhibition rate: vs negative control
Experimental: as §1
In another experiment, the test animal was BALB/c mice, the modeling cells were breast cancer 4T1 cells, and the transplantation tumor was modeled at 1×10^6 cells/mouse under the skin of the animal's right axilla. Successfully modeled experimental animals (average tumor volume 307 mm^3) were randomly divided into 1 negative control group (group 0) and 13 drug study groups (groups 1-13). […] Each group was administered by intratumoral injection once every 3 days for a total of 3 times, each time at an injection dose of 150 μl/mouse. On the 5th day after the administration was ended, the animals were euthanized, and the tumor weight was measured after anatomy to the animals. The tumor inhibition rate was calculated from the negative control group.

breast cancer 4T1 cells [8] = experiment: Tumor inhibition, breast cancer 4T1 transplantation tumor (Example 5); format: in vivo, BALB/c mouse; settings: intratumoral; for Tumor weight (x ± s): once every 3 days x3, 5th day after end; for Tumor inhibition rate: vs negative control
Experimental: as §1
as §2, with “In one” for “In an”, “at 1×10^6” for “at 1×10^5”, “axilla.” for “axilla. Successfully modeled experimental animals (with an average tumor volume of 324 mm^3) were divided into 1 negative control group (group 0) and 9 drug study groups (groups 1-9).”, “[…].” for “150 μl/mouse.”

[9] = study drugs of Example 6 (Table 8)
[10] = study drugs of Example 3 (Table 5)
[11] = study drugs of Example 4 (Table 6)
[12] = study drugs of Example 5 (Table 7)

CN(C)c1ccc2nc3ccc(=[N+](C)C)cc-3sc2c1 [0.3% methylene blue, methylene blue]
Tumor weight (x ± s) (breast cancer 4T1 cells [1]): 2.11 ± 0.29 g
Tumor inhibition rate (breast cancer 4T1 cells [1]): 3%

Cl [0.4% hydrochloric acid, hydrochloric acid]
Tumor weight (x ± s) (breast cancer 4T1 cells [2]): 1.65 ± 0.21 g
Tumor inhibition rate (breast cancer 4T1 cells [2]): 21%
pH [3, 9]: 0.1

O=c1[nH]cc(F)c(=O)[nH]1 [0.25% 5-fluorouracil, 5-fluorouracil]
Tumor weight (x ± s) (breast cancer 4T1 cells [1]): 1.94 ± 0.33 g
Tumor inhibition rate (breast cancer 4T1 cells [1]): 11%

O=c1[nH]cc(F)c(=O)[nH]1 [1% 5-fluorouracil, 5-fluorouracil]
r'3d, tumor inhibition rate (tumor volume) [4]: 26.8%
r'14d, tumor inhibition rate (tumor volume) [4]: 3.1%
Tumor weight (x ± s) (breast cancer 4T1 cells [1]): 1.07 ± 0.26 g
Tumor inhibition rate (breast cancer 4T1 cells [1]): 51%
Tumor weight (x ± s) (breast cancer 4T1 cells [5]): 1.10 ± 0.26 g
Tumor inhibition rate (breast cancer 4T1 cells [5]): 51%

[Na+].[OH-] [1% NaOH, sodium hydroxide]
Tumor weight (x ± s) (breast cancer 4T1 cells [6]): 1.41 ± 0.23 g
Tumor inhibition rate (breast cancer 4T1 cells [6]): 42%
pH [3, 10]: 13.4

CN(C)c1ccc2nc3ccc(=[N+](C)C)cc-3sc2c1 [1% methylene blue, methylene blue]
r'3d, tumor inhibition rate (tumor volume) [4]: 27.8%
r'14d, tumor inhibition rate (tumor volume) [4]: 16.9%
Tumor weight (x ± s) (breast cancer 4T1 cells [1]): 1.72 ± 0.27 g
Tumor inhibition rate (breast cancer 4T1 cells [1]): 21%
Tumor weight (x ± s) (breast cancer 4T1 cells [5]): 1.73 ± 0.23 g
Tumor inhibition rate (breast cancer 4T1 cells [5]): 23%

CCN(CC)c1ccc(C(=C2C=CC(=[N+](CC)CC)C=C2)c2cc(O)c(S(=O)(=O)O)cc2S(=O)(=O)O)cc1 [1% patent blue, patent blue]
Tumor weight (x ± s) (breast cancer 4T1 cells [5]): 1.71 ± 0.25 g
Tumor inhibition rate (breast cancer 4T1 cells [5]): 24%

[Cl-].[K+] [2% KCl, potassium chloride]
Tumor weight (x ± s) (breast cancer 4T1 cells [6]): 2.19 ± 0.31 g
Tumor inhibition rate (breast cancer 4T1 cells [6]): 11%

O=C([O-])O.[Na+] [2% sodium bicarbonate, sodium bicarbonate]
Tumor weight (x ± s) (breast cancer 4T1 cells [7]): 2.10 ± 0.25 g
Tumor inhibition rate (breast cancer 4T1 cells [7]): 7%
pH [3, 11]: 8.2

O=C([O-])[O-].[Na+].[Na+] [2.8% sodium carbonate, sodium carbonate]
Tumor weight (x ± s) (breast cancer 4T1 cells [7]): 2.10 ± 0.27 g
Tumor inhibition rate (breast cancer 4T1 cells [7]): 7%
pH [3, 11]: 10.9

CC(=O)O [3% acetic acid, acetic acid]
Tumor weight (x ± s) (breast cancer 4T1 cells [8]): 1.85 ± 0.26 g
Tumor inhibition rate (breast cancer 4T1 cells [8]): 15%
pH [3, 12]: 2.6

C=C[C@H]1C[N@@]2CC[C@H]1C[C@H]2[C@H](O)c1ccnc2ccc(OC)cc12 [3% quinine monohydrochloride, quinine monohydrochloride]
Tumor weight (x ± s) (breast cancer 4T1 cells [5]; monohydrochloride): 1.71 ± 0.26 g
Tumor inhibition rate (breast cancer 4T1 cells [5]; monohydrochloride): 24%

Cl [3.5% hydrochloric acid, hydrochloric acid]
Tumor weight (x ± s) (breast cancer 4T1 cells [2]): 0.82 ± 0.18 g
Tumor inhibition rate (breast cancer 4T1 cells [2]): 71%
pH [3, 9]: 0.1

O=C([O-])O.[Na+] [4% sodium bicarbonate, sodium bicarbonate]
Tumor weight (x ± s) (breast cancer 4T1 cells [8]): 1.68 ± 0.27 g
Tumor inhibition rate (breast cancer 4T1 cells [8]): 23%
Tumor weight (x ± s) (breast cancer 4T1 cells [6]): 1.87 ± 0.22 g
Tumor inhibition rate (breast cancer 4T1 cells [6]): 23%
pH [3, 10]: 8.2
pH [3, 12]: 8.2

[Na+].[OH-] [5% NaOH, sodium hydroxide]
Tumor weight (x ± s) (breast cancer 4T1 cells [6]): 0.28 ± 0.12 g
Tumor inhibition rate (breast cancer 4T1 cells [6]): 72%
pH [3, 10]: 14.0

Cl [5% hydrochloric acid, hydrochloric acid]
Tumor weight (x ± s) (breast cancer 4T1 cells [2]): 0.36 ± 0.14 g
Tumor inhibition rate (breast cancer 4T1 cells [2]): 83%
pH [3, 9]: 0.1

C=C[C@H]1C[N@@]2CC[C@H]1C[C@H]2[C@H](O)c1ccnc2ccc(OC)cc12 [5% quinine dihydrochloride, quinine dihydrochloride]
Tumor weight (x ± s) (breast cancer 4T1 cells [5]; dihydrochloride): 1.46 ± 0.21 g
Tumor inhibition rate (breast cancer 4T1 cells [5]; dihydrochloride): 35%

O=C([O-])O.[Na+] [5% sodium bicarbonate, sodium bicarbonate]
Tumor weight (x ± s) (breast cancer 4T1 cells [7]): 1.79 ± 0.24 g
Tumor inhibition rate (breast cancer 4T1 cells [7]): 21%
Tumor weight (x ± s) (breast cancer 4T1 cells [2]): 1.57 ± 0.20 g
Tumor inhibition rate (breast cancer 4T1 cells [2]): 25%
pH [3, 11]: 8.2
pH [3, 9]: 8.2

O=C([O-])[O-].[Na+].[Na+] [7% sodium carbonate, sodium carbonate]
Tumor weight (x ± s) (breast cancer 4T1 cells [7]): 1.81 ± 0.21 g
Tumor inhibition rate (breast cancer 4T1 cells [7]): 20%
pH [3, 11]: 10.8

CC(=O)[O-].[Na+] [10% sodium acetate, sodium acetate]
Tumor weight (x ± s) (breast cancer 4T1 cells [8]): 1.72 ± 0.23 g
Tumor inhibition rate (breast cancer 4T1 cells [8]): 21%
pH [3, 12]: 9.3

O=C([O-])O.[Na+] [10% sodium bicarbonate, sodium bicarbonate]
Tumor weight (x ± s) (breast cancer 4T1 cells [7]): 1.58 ± 0.22 g
Tumor inhibition rate (breast cancer 4T1 cells [7]): 30%
Tumor weight (x ± s) (breast cancer 4T1 cells [6]): 1.65 ± 0.29 g
Tumor inhibition rate (breast cancer 4T1 cells [6]): 32%
pH [3, 10]: 8.1
pH [3, 11]: 8.1

O=C([O-])[O-].[Na+].[Na+] [14% sodium carbonate, sodium carbonate]
Tumor weight (x ± s) (breast cancer 4T1 cells [7]): 1.47 ± 0.24 g
Tumor inhibition rate (breast cancer 4T1 cells [7]): 35%
pH [3, 11]: 10.8

CC(=O)O [15% acetic acid, acetic acid]
Tumor weight (x ± s) (breast cancer 4T1 cells [8]): 0.70 ± 0.18 g
Tumor inhibition rate (breast cancer 4T1 cells [8]): 68%
pH [3, 12]: 2.5

NCC(=O)O [15% glycine, glycine]
Tumor weight (x ± s) (breast cancer 4T1 cells [1]): 1.81 ± 0.26 g
Tumor inhibition rate (breast cancer 4T1 cells [1]): 17%
Tumor weight (x ± s) (breast cancer 4T1 cells [8]): 1.81 ± 0.26 g
Tumor inhibition rate (breast cancer 4T1 cells [8]): 17%
pH [3, 12]: 6.8
pH ([3]; study drugs of Example 7 (Table 9)): 6.8

O=C([O-])O.[Na+] [15% sodium bicarbonate, sodium bicarbonate]
Tumor weight (x ± s) (breast cancer 4T1 cells [2]): 1.29 ± 0.24 g
Tumor inhibition rate (breast cancer 4T1 cells [2]): 38%
pH [3, 9]: 8.1

CC(=O)O [30% acetic acid, acetic acid]
Tumor weight (x ± s) (breast cancer 4T1 cells [8]): 0.41 ± 0.11 g
Tumor inhibition rate (breast cancer 4T1 cells [8]): 81%
pH [3, 12]: 2.5

CC(=O)[O-].[Na+] [30% sodium acetate, sodium acetate]
Tumor weight (x ± s) (breast cancer 4T1 cells [8]): 1.53 ± 0.21 g
Tumor inhibition rate (breast cancer 4T1 cells [8]): 30%
pH [3, 12]: 9.4

dextran40 [2.5% dextran40 aqueous solution]
r'3d, tumor inhibition rate (tumor volume) [4]: 4.2%
r'14d, tumor inhibition rate (tumor volume) [4]: 5.3%

yeast hydroxymethyl glucan
r'3d, tumor inhibition rate (tumor volume) [4]: 4.5%
r'14d, tumor inhibition rate (tumor volume) [4]: 7.8%
